Data from article PMC2376372, “3-Bromophenyl 6-acetoxymethyl-2-oxo-2H-1-benzopyran-3-carboxylate inhibits cancer cell invasion in vitro and tumour growth in vivo” (British Journal of Cancer, 2003).

Assays:
[1] = target: T1, HMW-uPA (Homo sapiens, UniProt P00749); assay: Inhibition of purified HMW-uPA; format: biochemical; conditions: purified enzyme, pH 7.5, 25°C
T1 construct: purchased Choay
Description: (§1) Bovine α-CT and LMW-uPA (MW=33 000 Da) were purchased from Sigma, HMW-uPA (MW=54 000 Da) from Choay, trypsin (TRY) and THR from Boehringer-Indelheim (Germany), and MMP-2 and MMP-9 from Calbiochem. Human leucocyte elastase and PM were from Elastase Products Co. and Biogenic, respectively. Except for THR, HMW-uPA, MMP-2 and MMP-9, enzyme concentrations were determined by active-site titrations using the appropriate titrant ([Bender et al, 1966]; [Chase and Shaw, 1970]; [Powers and Gupton, 1977]). Several enzymes were assayed spectrophotometrically at 405 nm using the following p-nitroanilide substrates: succininyl-Ala2-Pro-Phe-p-nitroanilide (Suc-AAPF-p-NA), benzoyl-Arg-p-nitroanilide (Bz-R-p-NA) and methoxysuccinyl-Ala2-Pro-Val-p-nitroanilide (MeO-Suc-AAPV-p-NA) for α-CT, TRY and HLE, respectively (obtained from Sigma); or S-2238 ([…]), S-2444 (<Glu-Gly-Arg-p-nitroanilide) and S-2251 (H-D-Val-Leu-Lys-p-nitroanilide) for THR, HMW- and LMW-uPA, and PM, respectively (from Biogenic). Matrix metalloprotease-2 previously activated by treatment with APMA were assayed at 412 nm with the thiopeptide Ac-Pro-Leu-Gly-^Sleu-Leu-Gly-Oet in the presence of 5,5′-dithiobis(2-nitrobenzenic) acid (DTNB). […]

[2] = target: T2, MMP-2 (Homo sapiens, UniProt P08253); assay: Inhibition of purified MMP-2; format: biochemical; conditions: purified enzyme, pH 7.5, 25°C
T2 construct: purchased Calbiochem
T2 sequence (P08253 110-660): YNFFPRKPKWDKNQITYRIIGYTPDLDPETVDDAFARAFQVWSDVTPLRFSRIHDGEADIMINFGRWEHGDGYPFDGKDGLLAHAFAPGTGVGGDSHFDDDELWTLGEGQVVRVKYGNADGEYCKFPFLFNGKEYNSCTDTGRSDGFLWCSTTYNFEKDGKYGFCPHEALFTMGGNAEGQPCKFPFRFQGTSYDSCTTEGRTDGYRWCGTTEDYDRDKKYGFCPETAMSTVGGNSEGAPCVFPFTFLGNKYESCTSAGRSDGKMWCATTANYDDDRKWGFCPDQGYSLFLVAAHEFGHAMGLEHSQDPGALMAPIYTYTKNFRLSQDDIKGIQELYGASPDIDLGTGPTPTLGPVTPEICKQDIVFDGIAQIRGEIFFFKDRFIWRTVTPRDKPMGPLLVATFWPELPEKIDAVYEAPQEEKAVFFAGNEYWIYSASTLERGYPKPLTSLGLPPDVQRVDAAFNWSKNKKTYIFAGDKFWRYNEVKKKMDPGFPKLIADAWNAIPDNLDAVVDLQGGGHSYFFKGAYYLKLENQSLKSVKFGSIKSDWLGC
Description: as §1

[3] = test system: HT1080 cells; assay: Tumorigenicity of HT1080 cells injected s.c. with matrigel in nude mice; format: in vivo; conditions: 30 mg kg^−1 i.p. three times per week; for effect on tumour growth (tumour volume), HT1080: ANOVA; for time after cell inoculation to reach a tumour incidence of 50%: tumours higher than 80 mm^3
Description: Matrigel (basement membrane proteins) was extracted from the mouse Engelbreth–Holm–Swarm (EHS) tumour as previously described ([Noël et al, 1991]). Tumoral cells were detached by trypsinisation, harvested by centrifugation, resuspended in 0.25 ml of serum-free medium and mixed with an equal volume of cold matrigel (10 mg ml^−1). The suspension (1 × 10^6 cells injection site^−1) was injected subcutaneously (s.c.) on both body flanks of 6–8-week-old female athymic nude mice (n=6; nu/nu Swiss mice from Iffa credo, L'Arbresle, France). The coumarin derivatives in PBS were injected intraperitoneally (30 mg kg^−1) three times per week during the whole assay.
The tumorigenicity defines the capacity of cells to induce tumour formation. The larger (a) and smaller (b) diameters of the apparent tumour were measured and served for tumour volume calculation according to a × b^2 × 0.4 ([Attia and Weiss, 1966]). Injected mice were examined weekly. Tumours presenting a volume higher than 80 mm^3 and which maintained a progressive growth were taken into account ([Noël et al, 1992]). Results are expressed as the mean (±s.e.m.) of the tumour volumes.

SMILES | inhibition of HMW-uPA [1] | inhibition of MMP-2 [2] | effect on tumour growth (tumour volume), HT1080 [3] | effect on tumour incidence, HT1080 ([3]; log Rank test, P<0.004) | time after cell inoculation to reach a tumour incidence of 50% [3]
CC(=O)OCc1ccc2oc(=O)c(C(=O)Oc3cccc(Br)c3)cc2c1 [compound 7, 3-bromophenyl 6-acetoxy-methyl-2-oxo-2H-1-benzopyran-3-carboxylate] | not affected | not affected | significantly reduced the tumour growth | reduce both the incidence | 48 days
CC(=O)OCc1ccc2oc(=O)c(C(=O)Oc3cccc(Cl)c3)cc2c1 [compound 4, 3-chlorophenyl 6-acetoxymethyl-2-oxo-2H-1-benzopyran-3-carboxylate] | not affected | not affected | did not significantly affect tumour growth |  | 26 days
